Results: patent US9902709B2, “Polysubstituted pyridine compound, preparation method, use and pharmaceutical composition” (PEKING UNIVERSITY FOUNDER GROUP CO., LTD., priority 2014, dated 2018)
pIC50: −log10 of the molar value.

Tests used:
[1] = tested on: SK-OV-3 human ovarian cancer cell strain; experiment: In vitro anti-proliferation of tumor cells (CCK-8), SK-OV-3; type: cell-based; settings: SK-OV-3, 72 hours
Procedure: (§1) Experimental Example 2: Determination of the Compounds According to the Present Invention for IC50 of the In Vitro Anti-Proliferation of Tumor Cells
SK-OV-3 human ovarian cancer cell strain (purchased from Shanghai Institute of Cell Biology, Chinese Academy of Sciences);
(§2) Preparation of a compound: the compound was diluted with DMSO to a final concentration of 10 mM.
(§3) a) Cells in logarithmic growth phase were collected, counted, and re-suspended in complete medium. The concentration of cells was adjusted to a suitable concentration (determined depending on the result of optimization experiment of cell density), and the cells were seeded to a 96-well plate at 100 μl cell suspension per well. The cells were incubated in an incubator at 37° C., 100% relative humidity, 5% CO2 for 24 hours.
(§4) b) A test compound was diluted with the culture medium to 500 μM, and then gradient dilution was performed for 8 times. Cells were added at 25 μl/well. The final concentrations of the compound was in a range from 100 μM and 0 μM, 4-fold diluted, including 10 concentrations.
(§5) c) The cells were incubated in an incubator at 37° C., 100% relative humidity, 5% CO2 for 72 hours.
(§6) d) The culture medium was withdraw and discarded, the complete medium containing 10% CCK-8 was added, and then the cells were incubated in an incubator at 37° C. for 2-4 hours.
(§7) IC50 curve was fitted and IC50 value was calculated by professional software GraphPad Prism 5.0.
(§8) In the experiment, the compounds according to the present invention were determined for their IC50 values of in vitro anti-proliferation of tumor cell strains. The final concentrations of the compounds was in a range from 100 μM and 0 μM, 4-fold diluted, including 10 concentrations.

[2] = tested on: HCT116 human colon cancer cell strain; experiment: In vitro anti-proliferation of tumor cells (CCK-8), HCT-116; type: cell-based; settings: HCT-116, 72 hours
Procedure: as §1
HCT116 human colon cancer cell strain (purchased from Shanghai Institute of Cell Biology, Chinese Academy of Sciences);
as §2, §3, §4, §5, §6, §7, §8

[3] = tested on: 786-O human renal clear cell carcinoma cell strain; experiment: In vitro anti-proliferation of tumor cells (CCK-8), 786-O; type: cell-based; settings: 786-0, 72 hours
Procedure: as §1
786-O human renal clear cell carcinoma cell strain (purchased from Shanghai Institute of Cell Biology, Chinese Academy of Sciences);
as §2, §3, §4, §5, §6, §7, §8

[4] = tested on: A498 human renal carcinoma cell strain; experiment: In vitro anti-proliferation of tumor cells (CCK-8), A498; type: cell-based; settings: A498, 72 hours
Procedure: as §1
A498 human renal carcinoma cell strain (purchased from Shanghai Institute of Cell Biology, Chinese Academy of Sciences);
as §2, §3, §4, §5, §6, §7, §8

[5] = tested on: MDA-MB-231 human mammary cancer cell strain; experiment: In vitro anti-proliferation of tumor cells (CCK-8), MDA-MB-231; type: cell-based; settings: for pIC50: Homo sapiens, MDA-MB-231, 72 hours, CCK-8
Procedure: as §1
MDA-MB-231 human mammary cancer cell strain (purchased from Shanghai Institute of Cell Biology, Chinese Academy of Sciences);
as §2, §3, §4, §5, §6, §7, §8

[6] = tested on: MiaPaCa-2 human pancreatic cancer cell strain; experiment: In vitro anti-proliferation of tumor cells (CCK-8), MiaPaCa-2; type: cell-based; settings: MIA PaCa-2, MiaPaCa-2, 72 hours
Procedure: as §1
MiaPaCa-2 human pancreatic cancer cell strain (purchased from American ATCC);
as §2, §3, §4, §5, §6, §7, §8

[7] = tested on: HepG2 human liver cancer cell strain; experiment: In vitro anti-proliferation of tumor cells (CCK-8), HepG2; type: cell-based; settings: HepG2, 72 hours
Procedure: as §1
HepG2 human liver cancer cell strain (purchased from Shanghai Institute of Cell Biology, Chinese Academy of Sciences);
as §2, §3, §4, §5, §6, §7, §8

[8] = tested on: NCI-H460 Human large cell lung cancer cell strain; experiment: In vitro anti-proliferation of tumor cells (CCK-8), NCI-H460; type: cell-based; settings: NCI-H460, 72 hours
Procedure: as §1
NCI-H460 Human large cell lung cancer cell strain (purchased from Shanghai Institute of Cell Biology, Chinese Academy of Sciences);
as §2, §3, §4, §5, §6, §7, §8

[9] = tested on: HL-60 human acute myeloid leukemia cell strain; experiment: In vitro anti-proliferation of tumor cells (CCK-8), HL-60; type: cell-based; settings: HL-60, 72 hours
Procedure: as §1
HL-60 human acute myeloid leukemia cell strain (purchased from Shanghai Institute of Cell Biology, Chinese Academy of Sciences);
as §2, §3, §4, §5, §6, §7, §8

Pharmacokinetics in mice = type: in vivo; settings: female, plasma, CD-1 mouse; for bioavailability: PO 5 mg/kg vs IV 1 mg/kg, read-out: F (oral bioavailability); for AUC(0-t): read-out: AUClast (area under the curve)
Procedure: Administration route: intravenous injection (IV); per os (PO).
Fasting condition: free access to water, no fasting.
The mice were weighed before administration, and the administration volume was calculated based on their body weights (IV group: 4 mL/kg; PO group: 10 mL/kg).
Administration route and dose: Intravenous (IV) group: 1 mg/kg; Oral (PO) group: 5 mg/kg.
Animal grouping: 3 mice/group, an IV group and a PO group for each test compound.
After administration, 30 μL whole blood was collected from rim of the eyes of mice in the IV group at each pre-determined time point (5 min, 15 min, 30 min, 1 h, 2 h, 4 h, 8 h, 24 h), and 30 μL whole blood was collected from rim of the eyes of mice in the PO group at each pre-determined time point (15 min, 30 min, 1 h, 2 h, 4 h, 8 h, 24 h). The whole blood was centrifuged (6,000 rpm, 5 min) to get blood plasma. All the blood plasma samples were stored in a refrigerator of −80° C. for further analysis.
Conditions of LC/MS/MS was as follows:
Pharmacokinetic parameters were estimated according to non-compartment model (calculated by WinNonlin software): […]
IV paramater: t1/2 (hr); C0 (ng/mL); AUClast (hr*ng/mL); AUCInf (hr*ng/mL); AUC Extr (%); Vz (L/kg); Vss (L/kg); CL (mL/min/kg); MRT (hr).
PO parameter: t1/2 (hr); tmax (hr); Cmax (ng/mL); AUClast (hr*ng/mL); AUCInf (hr*ng/mL); AUC Extr (%); MRT (hr); AUC/D (hr*mg/mL); F (%).

[10] = PO 5 mg/kg, average of three mice

pIC50 [1] | pIC50 [2] | pIC50 [3] | pIC50 [4] | pIC50 [5] | pIC50 [6] | pIC50 [7] | pIC50 [8] | pIC50 [9] | bioavailability (Pharmacokinetics in mice) [%] | AUC(0-t) (Pharmacokinetics in mice; [10]) [ng·h/mL] | IC50 as fold of that of Sorafenib ([5]; MDA-MB-231 cell line) [fold] | Cmax (Pharmacokinetics in mice; PO 5 mg/kg, average of three mice, read-out: Cmax (peak concentration)) [ng/mL] | SMILES
4.75 | 5.34 | 5.35 | 5.26 | 5.00 | 5.51 | 6.02 | 5.90 | 4.66 | 78.6 | 18900 | – | – | CNC(=O)c1cc(Oc2ccc(NC(=O)Nc3ccc(Cl)c(C(F)(F)F)c3)cc2)ccn1 [Comparative example 1, Sorafenib, reference compound]
5.24 | 5.50 | 5.56 | 5.33 | 5.52 | 5.63 | 6.09 | 5.98 | 4.74 | 82.9 | 56600 | 0.30 | 3010 | Cn1cc(-c2nccc(Oc3ccc(NC(=O)Nc4ccc(Cl)c(C(F)(F)F)c4)cc3)c2Cl)cn1 [Example 2, 1-(4-chloro-3-(trifluoromethyl)phenyl)-3-(4-(3-chloro-2-(1-methyl-pyrazol-4-yl)-pyridin-4-yl-oxy)phenyl)urea]
